Experimental data: PubChem BioAssay (NCI)
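Exposure lasted 48 hours, with cells grown in 96-well plates and compounds tested at five concentrations. Abbreviation: GI50, concentration required for 50% inhibition of growth. TGI denotes the concentration required for complete inhibition of growth.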

What was measured:
Test in all cases: DTP human tumour cell line panel, 48 h; in the data active = GI50 below about 0.43 µM; inactive = the rest
SNB-75 CNS = tested on: SNB-75 CNS
SF-539 CNS = tested on: SF-539 CNS
HCT-15 colon = tested on: HCT-15 colon
SF-268 CNS = tested on: SF-268 CNS
NCI-H23 lung = tested on: NCI-H23 lung
HCC-2998 colon = tested on: HCC-2998 colon
SK-MEL-28 melanoma = tested on: SK-MEL-28 melanoma
SN12C renal = tested on: SN12C renal
SK-MEL-5 melanoma = tested on: SK-MEL-5 melanoma
RPMI-8226 leukemia = tested on: RPMI-8226 leukemia
MOLT-4 leukemia = tested on: MOLT-4 leukemia
EKVX NSCLC = tested on: EKVX NSCLC
OVCAR-8 ovarian = tested on: OVCAR-8 ovarian
UACC-257 melanoma = tested on: UACC-257 melanoma
TK-10 renal = tested on: TK-10 renal
SK-MEL-2 melanoma = tested on: SK-MEL-2 melanoma
OVCAR-3 ovarian = tested on: OVCAR-3 ovarian
K-562 leukemia = tested on: K-562 leukemia
HL-60(TB) leukemia = tested on: HL-60(TB) leukemia
CCRF-CEM leukemia = tested on: CCRF-CEM leukemia
HCT-116 colon = tested on: HCT-116 colon
SR leukemia = tested on: SR leukemia
KM12 colon = tested on: KM12 colon
SF-295 CNS = tested on: SF-295 CNS
NCI-H226 lung = tested on: NCI-H226 lung
A498 renal = tested on: A498 renal
SW-620 colon = tested on: SW-620 colon
MCF7 breast = tested on: MCF7 breast
NCI-H460 lung = tested on: NCI-H460 lung
HT29 colon = tested on: HT29 colon
MALME-3M melanoma = tested on: MALME-3M melanoma
ACHN renal = tested on: ACHN renal
U251 CNS = tested on: U251 CNS
OVCAR-5 ovarian = tested on: OVCAR-5 ovarian
786-0 renal = tested on: 786-0 renal
PC-3 prostate = tested on: PC-3 prostate
NCI-H522 lung = tested on: NCI-H522 lung
HS 578T breast = tested on: HS 578T breast
A549 NSCLC = tested on: A549 NSCLC
HOP-62 NSCLC = tested on: HOP-62 NSCLC
DU-145 prostate = tested on: DU-145 prostate
BT-549 breast = tested on: BT-549 breast
COLO 205 colon = tested on: COLO 205 colon
SK-OV-3 ovarian = tested on: SK-OV-3 ovarian
UACC-62 melanoma = tested on: UACC-62 melanoma
HOP-92 NSCLC = tested on: HOP-92 NSCLC
OVCAR-4 ovarian = tested on: OVCAR-4 ovarian
SNB-19 CNS = tested on: SNB-19 CNS
M14 melanoma = tested on: M14 melanoma
T-47D breast = tested on: T-47D breast
UO-31 renal = tested on: UO-31 renal
MDA-MB-435 = tested on: MDA-MB-435
LOX IMVI melanoma = tested on: LOX IMVI melanoma
NCI/ADR-RES ovarian = tested on: NCI/ADR-RES ovarian
CAKI-1 renal = tested on: CAKI-1 renal
MDA-MB-231 breast = tested on: MDA-MB-231 breast
RXF 393 renal = tested on: RXF 393 renal
IGROV1 ovarian = tested on: IGROV1 ovarian

Cc1ncc([N+](=O)[O-])n1CC(O)Cn1ccnc1[N+](=O)[O-] (centres undefined)
> 100 µM: TGI (SNB-75 CNS) | TGI (SF-539 CNS) | TGI (HCT-15 colon) | TGI (SF-268 CNS) | TGI (NCI-H23 lung) | TGI (HCC-2998 colon) | TGI (SK-MEL-28 melanoma) | TGI (SN12C renal) | TGI (SK-MEL-5 melanoma) | TGI (RPMI-8226 leukemia) | TGI (MOLT-4 leukemia) | TGI (EKVX NSCLC) | TGI (OVCAR-8 ovarian) | TGI (UACC-257 melanoma) | TGI (TK-10 renal) | TGI (SK-MEL-2 melanoma) | TGI (OVCAR-3 ovarian) | TGI (K-562 leukemia) | TGI (HL-60(TB) leukemia) | TGI (CCRF-CEM leukemia) | TGI (HCT-116 colon) | TGI (SR leukemia) | TGI (KM12 colon) | TGI (SF-295 CNS) | TGI (NCI-H226 lung) | TGI (A498 renal) | TGI (SW-620 colon) | TGI (MCF7 breast) | TGI (NCI-H460 lung) | TGI (HT29 colon) | TGI (MALME-3M melanoma) | TGI (ACHN renal) | TGI (U251 CNS) | TGI (OVCAR-5 ovarian) | TGI (786-0 renal) | TGI (PC-3 prostate) | TGI (NCI-H522 lung) | TGI (HS 578T breast) | TGI (A549 NSCLC) | TGI (HOP-62 NSCLC)

C=C(C)[C@@H]1CC[C@]2(CNCCO)CC[C@]3(C)[C@H](CC[C@@H]4[C@@]5(C)CCC(N)[C@@](C)(CO)[C@@H]5CC[C@]43C)[C@@H]12 (some centres undefined)
inactive: GI50 (SNB-75 CNS) 1.58 µM | GI50 (SF-539 CNS) 1.77 µM | GI50 (HCT-15 colon) 1.8 µM | GI50 (SF-268 CNS) 1.75 µM | GI50 (NCI-H23 lung) 2.14 µM | GI50 (HCC-2998 colon) 1.83 µM | GI50 (SK-MEL-28 melanoma) 1.84 µM | GI50 (SN12C renal) 1.75 µM | GI50 (DU-145 prostate) 1.65 µM | GI50 (BT-549 breast) 1.74 µM | GI50 (SK-MEL-5 melanoma) 1.74 µM | GI50 (RPMI-8226 leukemia) 1.65 µM | GI50 (MOLT-4 leukemia) 1.56 µM | GI50 (EKVX NSCLC) 1.75 µM | GI50 (OVCAR-8 ovarian) 1.76 µM | GI50 (UACC-257 melanoma) 1.85 µM | GI50 (TK-10 renal) 1.74 µM | GI50 (SK-MEL-2 melanoma) 1.77 µM | GI50 (OVCAR-3 ovarian) 1.75 µM | GI50 (COLO 205 colon) 1.59 µM | GI50 (K-562 leukemia) 1.5 µM | GI50 (HL-60(TB) leukemia) 1.33 µM | GI50 (SK-OV-3 ovarian) 1.95 µM | GI50 (CCRF-CEM leukemia) 2.17 µM | GI50 (UACC-62 melanoma) 1.77 µM | GI50 (HOP-92 NSCLC) 1.43 µM | GI50 (HCT-116 colon) 1.55 µM | GI50 (SR leukemia) 1.68 µM | GI50 (KM12 colon) 1.71 µM | GI50 (SF-295 CNS) 1.76 µM | GI50 (NCI-H226 lung) 2.13 µM | GI50 (OVCAR-4 ovarian) 1.9 µM | GI50 (SNB-19 CNS) 1.83 µM | GI50 (A498 renal) 1.36 µM | GI50 (M14 melanoma) 1.75 µM | GI50 (T-47D breast) 2.07 µM | GI50 (SW-620 colon) 1.93 µM | GI50 (UO-31 renal) 1.65 µM | GI50 (MCF7 breast) 1.6 µM | GI50 (MDA-MB-435) 1.75 µM | GI50 (NCI-H460 lung) 1.77 µM | GI50 (HT29 colon) 1.46 µM | GI50 (MALME-3M melanoma) 1.8 µM | GI50 (ACHN renal) 1.99 µM | GI50 (U251 CNS) 1.69 µM | GI50 (LOX IMVI melanoma) 1.64 µM | GI50 (NCI/ADR-RES ovarian) 12.9 µM | GI50 (CAKI-1 renal) 2.85 µM | GI50 (OVCAR-5 ovarian) 2.3 µM | GI50 (786-0 renal) 1.68 µM | GI50 (PC-3 prostate) 1.73 µM | GI50 (MDA-MB-231 breast) 1.86 µM | GI50 (NCI-H522 lung) 1.95 µM | GI50 (RXF 393 renal) 1.29 µM | GI50 (IGROV1 ovarian) 1.98 µM | GI50 (A549 NSCLC) 1.8 µM | GI50 (HOP-62 NSCLC) 1.79 µM
3.62 µM: TGI (PC-3 prostate)
3.57 µM: TGI (HCT-15 colon)
5.3 µM: TGI (CCRF-CEM leukemia)
3.18 µM: TGI (DU-145 prostate) | TGI (HT29 colon)
3.25 µM: TGI (MDA-MB-435)
7.82 µM: TGI (CAKI-1 renal)
3.85 µM: TGI (MOLT-4 leukemia)
3.1 µM: TGI (SNB-75 CNS) | TGI (LOX IMVI melanoma)
3.39 µM: TGI (OVCAR-8 ovarian) | TGI (UACC-257 melanoma)
3.41 µM: TGI (SN12C renal) | TGI (SK-OV-3 ovarian)
3.7 µM: TGI (K-562 leukemia)
2.85 µM: TGI (A498 renal)
2.96 µM: TGI (HCT-116 colon)
3.88 µM: TGI (SW-620 colon)
3.28 µM: TGI (HOP-62 NSCLC)
3.11 µM: TGI (786-0 renal)
3.14 µM: TGI (SK-MEL-5 melanoma)
4.08 µM: TGI (SR leukemia)
3.35 µM: TGI (HCC-2998 colon)
26.7 µM: TGI (NCI/ADR-RES ovarian)
3.36 µM: TGI (SNB-19 CNS) | TGI (NCI-H460 lung)
3.97 µM: TGI (T-47D breast)
3.33 µM: TGI (BT-549 breast) | TGI (SF-295 CNS)
3.2 µM: TGI (TK-10 renal)
3.16 µM: TGI (U251 CNS)
4.79 µM: TGI (OVCAR-5 ovarian)
3.27 µM: TGI (SF-539 CNS) | TGI (SK-MEL-2 melanoma)
3.29 µM: TGI (OVCAR-3 ovarian)
3.21 µM: TGI (KM12 colon)
3.07 µM: TGI (UO-31 renal)
2.94 µM: TGI (HOP-92 NSCLC)
3.46 µM: TGI (SF-268 CNS) | TGI (HL-60(TB) leukemia)
4.09 µM: TGI (IGROV1 ovarian)
3.61 µM: TGI (ACHN renal)
3.44 µM: TGI (MDA-MB-231 breast)
3.91 µM: TGI (RPMI-8226 leukemia)
3.08 µM: TGI (COLO 205 colon)
3.17 µM: TGI (MCF7 breast)
3.95 µM: TGI (NCI-H23 lung)
3.19 µM: TGI (UACC-62 melanoma)
3.38 µM: TGI (SK-MEL-28 melanoma) | TGI (EKVX NSCLC) | TGI (A549 NSCLC)
3.69 µM: TGI (NCI-H522 lung)
2.62 µM: TGI (RXF 393 renal)
3.31 µM: TGI (M14 melanoma) | TGI (MALME-3M melanoma)
3.99 µM: TGI (OVCAR-4 ovarian)
5.48 µM: TGI (NCI-H226 lung)
